According to patent US12421254B2, “KRAS modulators and uses thereof” (Quanta Therapeutics, Inc., priority 2023, dated 2025):

Experiments:
[1] = target: GST-tagged KRAS-G12V (2-169) (Homo sapiens, UniProt P01116, G12V); test: Nucleotide exchange assay (NEA), SOS-mediated, HTRF, KRAS G12V; type: biochemical; settings: Table 4; IC50 extracted at 90 min; 80 nM SOS
Outline: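 Exchange onto fluorescent GTP-DY-647P1 (150 nM final) catalysed by 80 nM SOS1cat was followed by Tb-anti-GST HTRF at RT for up to 90 min, after 1 h compound pre-incubation with 0.25 nM GST-tagged KRAS-G12V (2-169), pH 7.3. DMSO = 0%, no-SOS blank = 100%; 4-parameter IC50 taken at 90 min.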

[2] = target: GST-tagged KRAS-G12D (2-169) (Homo sapiens, UniProt P01116, G12D); test: Nucleotide exchange assay (NEA), SOS-mediated, HTRF, KRAS G12D; type: biochemical; settings: Table 4; IC50 extracted at 30 min; 20 nM SOScat; read-out: NEA G12D IC50
Chain of GST-tagged KRAS-G12D (2-169) (P01116 2-169 isoform P01116-2 G12D): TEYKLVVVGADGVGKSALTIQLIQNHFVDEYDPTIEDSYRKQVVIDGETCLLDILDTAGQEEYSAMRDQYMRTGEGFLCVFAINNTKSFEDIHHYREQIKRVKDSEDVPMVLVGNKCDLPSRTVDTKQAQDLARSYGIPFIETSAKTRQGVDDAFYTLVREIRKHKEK
Outline: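 SOS1cat-driven loading of fluorescent GTP-DY-647P1 (150 nM) onto GST-KRAS-G12D (2-169, 0.25 nM) read by time-resolved FRET; SOScat 20 nM, compound preincubated with KRAS 1 h at RT. Signal blanked to no-SOS reactions, normalized to DMSO; IC50 fitted from the 30-min read.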

[3] = system: phospho-ERK in GP2D (KRAS-G12D) cells; test: pERK In Cell Western (ICW) assay (Method B), GP2D; type: cell-based; settings: GP2d, 3 h, Table 4
Outline: (§1)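 After overnight attachment, cells received nine half-log compound concentrations for 3 hours, were fixed, permeabilized and probed with phospho-ERK antibody plus DRAQ5. Normalized pERK signal versus blank control yields IC50 via variable-slope four-parameter fit.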

[4] = system: phospho-ERK in SW620 (KRAS-G12V) cells; test: pERK In Cell Western (ICW) assay (Method B), SW620; type: cell-based; settings: Homo sapiens, SW-620, 3 h, Table 4
Outline: as §1

Chain of GST-tagged KRAS-G12V (2-169) (P01116 2-169 isoform P01116-2 G12V): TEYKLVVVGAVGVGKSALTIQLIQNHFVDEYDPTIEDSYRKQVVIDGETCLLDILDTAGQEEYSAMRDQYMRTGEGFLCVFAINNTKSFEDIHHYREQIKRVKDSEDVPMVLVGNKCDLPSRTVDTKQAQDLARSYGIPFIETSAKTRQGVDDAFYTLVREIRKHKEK

| Structure (SMILES) | IC50 [1] | IC50 [2] | IC50 [3] | IC50 [4] |
| --- | --- | --- | --- | --- |
| CC(c1cncnc1N)N(C)c1nc(OC[C@@]23CCCN2C[C@H](F)C3)nc(N2CC3(CCc4sc(N)c(C#N)c43)C2)n1 (stereo partly drawn) [Compound 108, 2-amino-1′-[4-[1-(4-aminopyrimidin-5-yl)ethyl-methyl-amino]-6-[[(2R,8S)-2-fluoro-1,2,3,5,6,7-hexahydropyrrolizin-8-yl]methoxy]-1,3,5-triazin-2-yl]spiro[5,6-dihydrocyclopenta[b]thiophene-4,3′-azetidine]-3-carbonitrile] | < 10 nM | < 10 nM | 10 to 100 nM | 10 to 100 nM |
| CC(c1ccnnc1N)N(C)c1nc(OC[C@@]23CCCN2C[C@H](F)C3)nc(N2CC3(CCc4sc(N)c(C#N)c43)C2)n1 (stereo partly drawn) [Compound 109, 2-amino-1′-[4-[1-(3-aminopyridazin-4-yl)ethyl-methyl-amino]-6-[[(2R,8S)-2-fluoro-1,2,3,5,6,7-hexahydropyrrolizin-8-yl]methoxy]-1,3,5-triazin-2-yl]spiro[5,6-dihydrocyclopenta[b]thiophene-4,3′-azetidine]-3-carbonitrile] | < 10 nM | < 10 nM | 100 to 1000 nM | 10 to 100 nM |
| CC1(C#N)CCCCN(c2nc(OC[C@@]34CCCN3C[C@H](F)C4)nc(N3CC4(CCc5sc(N)c(C#N)c54)C3)n2)C1 (stereo partly drawn) [Compound 111, 2-amino-1′-[4-(3-cyano-3-methyl-azepan-1-yl)-6-[[(2R,8S)-2-fluoro-1,2,3,5,6,7-hexahydropyrrolizin-8-yl]methoxy]-1,3,5-triazin-2-yl]spiro[5,6-dihydrocyclopenta[b]thiophene-4,3′-azetidine]-3-carbonitrile] | < 10 nM | < 10 nM | 100 to 1000 nM | 100 to 1000 nM |
| C[C@@]1(O)CCCN(c2nc(OC[C@@]34CCCN3C[C@H](F)C4)nc(N3CC4(C3)c3c(sc(N)c3C#N)CC4(F)F)n2)C1 [Compound 114, 2-amino-5,5-difluoro-1′-[4-[[(2R,8S)-2-fluoro-1,2,3,5,6,7-hexahydropyrrolizin-8-yl]methoxy]-6-[(3R)-3-hydroxy-3-methyl-1-piperidyl]-1,3,5-triazin-2-yl]spiro[6H-cyclopenta[b]thiophene-4,3′-azetidine]-3-carbonitrile] | < 10 nM | < 10 nM | 10 to 100 nM | 100 to 1000 nM |
| CC(c1cccnc1N)N(C)c1nc(OCCc2nccn2C)nc(N2CC3(CCc4sc(N)c(C#N)c43)C2)n1 (stereo not drawn) [Compound 117, 2-amino-1′-[4-[1-(2-amino-3-pyridyl)ethyl-methyl-amino]-6-[2-(1-methylimidazol-2-yl)ethoxy]-1,3,5-triazin-2-yl]spiro[5,6-dihydrocyclopenta[b]thiophene-4,3′-azetidine]-3-carbonitrile] | 10 to 100 nM | 100 to 1000 nM | 100 to 1000 nM | 100 to 1000 nM |
| CC(c1cccnc1N)N(CCC#N)c1nc(OC[C@@]23CCCN2C[C@H](F)C3)nc(N2CC3(CCc4sc(N)c(C#N)c43)C2)n1 (stereo partly drawn) [Compound 118, 2-amino-1′-[4-[1-(2-amino-3-pyridyl)ethyl-(2-cyanoethyl)amino]-6-[[(2R,8S)-2-fluoro-1,2,3,5,6,7-hexahydropyrrolizin-8-yl]methoxy]-1,3,5-triazin-2-yl]spiro[5,6-dihydrocyclopenta[b]thiophene-4,3′-azetidine]-3-carbonitrile] | < 10 nM | < 10 nM | < 10 nM | < 10 nM |
| C[C@@]1(O)C[C@@H](F)CN(c2nc(OC[C@@]34CCCN3C[C@H](F)C4)nc(N3CC4(C3)SCc3sc(N)c(C#N)c34)n2)C1 [Compound 123, 2-amino-1′-[4-[[(2R,8S)-2-fluoro-1,2,3,5,6,7-hexahydropyrrolizin-8-yl]methoxy]-6-[(3R,5R)-5-fluoro-3-hydroxy-3-methyl-1-piperidyl]-1,3,5-triazin-2-yl]spiro[6H-thieno[3,4-b]thiophene-4,3′-azetidine]-3-carbonitrile] | < 10 nM | < 10 nM | 10 to 100 nM | 100 to 1000 nM |
| CC(c1nccnc1N)N(CCO)c1nc(OC[C@@]23CCCN2C[C@H](F)C3)nc(N2CC3(CCc4sc(N)c(C#N)c43)C2)n1 (stereo partly drawn) [Compound 124, 2-amino-1′-[4-[1-(3-aminopyrazin-2-yl)ethyl-(2-hydroxyethyl)amino]-6-[[(2R,8S)-2-fluoro-1,2,3,5,6,7-hexahydropyrrolizin-8-yl]methoxy]-1,3,5-triazin-2-yl]spiro[5,6-dihydrocyclopenta[b]thiophene-4,3′-azetidine]-3-carbonitrile] | < 10 nM | < 10 nM | 100 to 1000 nM | 10 to 100 nM |
| CC(c1cccnc1N)N(C)c1nc(OCC2(CN3CCOCC3)CC2)nc(N2CC3(C2)SCc2sc(N)c(C#N)c23)n1 (stereo not drawn) [Compound 128, 2-amino-1′-[4-[1-(2-amino-3-pyridyl)ethyl-methyl-amino]-6-[[1-(morpholinomethyl)cyclopropyl]methoxy]-1,3,5-triazin-2-yl]spiro[6H-thieno[3,4-b]thiophene-4,3′-azetidine]-3-carbonitrile] | < 10 nM | 10 to 100 nM | 100 to 1000 nM | 10 to 100 nM |
| CC(c1ccn[nH]1)N(C)c1nc(OC[C@@]23CCCN2C[C@H](F)C3)nc(N2CC3(CCc4sc(N)c(C#N)c43)C2)n1 (stereo partly drawn) [Compound 129, 2-amino-1′-[4-[methyl-[1-(1H-pyrazol-5-yl)ethyl]amino]-6-[[(2R,8S)-2-fluoro-1,2,3,5,6,7-hexahydropyrrolizin-8-yl]methoxy]-1,3,5-triazin-2-yl]spiro[5,6-dihydrocyclopenta[b]thiophene-4,3′-azetidine]-3-carbonitrile] | < 10 nM | 100 to 1000 nM | 1000 to 20000 nM | 1000 to 20000 nM |
| N#Cc1c(N)sc2c1C1(CC2)CN(c2nc(OC[C@@]34CCCN3C[C@H](F)C4)nc(N3CCCC4(CC(=O)N4)C3)n2)C1 (stereo partly drawn) [Compound 130, 2-amino-1′-[4-[[(2R,8S)-2-fluoro-1,2,3,5,6,7-hexahydropyrrolizin-8-yl]methoxy]-6-(2-oxo-1,8-diazaspiro[3.5]nonan-8-yl)-1,3,5-triazin-2-yl]spiro[5,6-dihydrocyclopenta[b]thiophene-4,3′-azetidine]-3-carbonitrile] | < 10 nM | < 10 nM | 100 to 1000 nM | 1000 to 20000 nM |
| CC(c1cc(Cl)nnc1N)N(C)c1nc(OC[C@@]23CCCN2C[C@H](F)C3)nc(N2CC3(CCc4sc(N)c(C#N)c43)C2)n1 (stereo partly drawn) [Compound 132, 2′-amino-1-(4-((1-(3-amino-6-chloropyridazin-4-yl)ethyl)(methyl)amino)-6-(((2R,7aS)-2-fluorotetrahydro-1H-pyrrolizin-7a(5H)-yl)methoxy)-1,3,5-triazin-2-yl)-5′,6′-dihydrospiro[azetidine-3,4′-cyclopenta[b]thiophene]-3′-carbonitrile] | < 10 nM | 10 to 100 nM | 1000 to 20000 nM | 100 to 1000 nM |
| N#Cc1c(N)sc2c1C1(CC2)CN(c2nc(OC[C@@]34CCCN3C[C@H](F)C4)nc(N(CCO)Cc3cc(F)cnc3N)n2)C1 [Compound 133, 2-amino-1′-[4-[(2-amino-5-fluoro-3-pyridyl)methyl-(2-hydroxyethyl)amino]-6-[[(2R,8S)-2-fluoro-1,2,3,5,6,7-hexahydropyrrolizin-8-yl]methoxy]-1,3,5-triazin-2-yl]spiro[5,6-dihydrocyclopenta[b]thiophene-4,3′-azetidine]-3-carbonitrile] | < 10 nM | < 10 nM | 100 to 1000 nM | 10 to 100 nM |
| CC(c1nccnc1N)N(C)c1nc(OC[C@@]23CCCN2C[C@H](F)C3)nc(N2CC3(C2)SCc2sc(N)c(C#N)c23)n1 (stereo partly drawn) [Compound 134, 2-amino-1′-[4-[1-(3-aminopyrazin-2-yl)ethyl-methyl-amino]-6-[[(2R,8S)-2-fluoro-1,2,3,5,6,7-hexahydropyrrolizin-8-yl]methoxy]-1,3,5-triazin-2-yl]spiro[6H-thieno[3,4-b]thiophene-4,3′-azetidine]-3-carbonitrile] | < 10 nM | < 10 nM | 10 to 100 nM | < 10 nM |
| N#Cc1c(N)sc2c1C1(CC2)CN(c2nc(OC[C@@]34CCCN3C[C@H](F)C4)nc(N(CCO)Cc3ccc[nH]c3=O)n2)C1 [Compound 136, 2-amino-1′-[4-[[(2R,8S)-2-fluoro-1,2,3,5,6,7-hexahydropyrrolizin-8-yl]methoxy]-6-[2-hydroxyethyl-[(2-oxo-1H-pyridin-3-yl)methyl]amino]-1,3,5-triazin-2-yl]spiro[5,6-dihydrocyclopenta[b]thiophene-4,3′-azetidine]-3-carbonitrile] | 100 to 1000 nM | 100 to 1000 nM | 1000 to 20000 nM | 1000 to 20000 nM |
